Where “and” joins values, the source holds several entries; their conditions need not be identical. Equal entries are not always repeated. Residues, ends and D or L forms follow the SMILES beside them.
Columns and labels:
[1] = target: T1, Hsp16.3 (Mycobacterium tuberculosis, UniProt P9WMK1); test: biochemical; format: binding; settings: fluoresceinated peptide 200 nM, 50 mM sodium phosphate buffer, pH 7.5, 300 mM NaCl, 25°C, single-site fit
[2] = target: T1, Hsp16.3; test: Peptide inhibition assay for Hsp16.3 chaperon activity (heat-induced ADH aggregation, A360); format: biochemical; settings: for IC50: IC50 (concentration of peptide at which 50% inhibition of chaperon activity was observed), 5 µM ADH, 50°C, ADH:Hsp16.3 5:4, A360 at 1200 sec
From the text: The binding of a peptide need not necessarily result in inhibition. Inhibition will happen only if binding leads to significant changes in the active site. […] A part of the invention is the development of a peptide inhibition assay for Hsp16.3. The method is based on aggregation based assays. The standard assay used for assaying the activity of alpha-crystallin like proteins is to study the protection it confers against heat induced aggregation of proteins, the aggregation activity being measured spectrophotometrically. Yeast alcohol dehydrogenase (ADH), purchased from Sisco Research Laboratory, Mumbai, India, is used for aggregation studies. Aggregation of 5 µM ADH at 50°C can be measured as an apparent optical density at 360 nm using a spectrophotometer equipped with a thermostated cuvette holder in a total reaction volume of 500 µl. The chaperon activity of Hsp16.3 can be determined by mixing ADH with Hsp16.3 at a molar ratio of 5:4 which is equivalent to a ratio of about 12:1 between ADH and Hsp16.3 assuming a nonameric structure of Hsp16.3 as the functional unit (Chang et al., 1996) and aggregation rates again determined spectrophotometrically. Then the same experiment can be repeated in the presence of increasing concentrations of peptide inhibitors.
A part of the invention is the peptide inhibition assay for Hsp16.3 comprising of heat treating ADH alone, ADH + Hsp16.3 and ADH + Hsp16.3 + 25, 50 and 100 µM peptide. When ADH is heated it aggregates and there is an increase of optical density. In the presence of Hsp16.3 aggregation is prevented, but in the presence of peptide aggregation is again observed if Hsp16.3 activity is inhibited. Aggregation of 5 µM ADH at 50°C was measured as an apparent optical density at 360 nm using Hitachi spectrophotometer equipped with a thermostated cuvette holder in a total reaction volume of 500 µl. The chaperon activity of Hsp16.3 was determined by mixing ADH with Hsp16.3 at a molar ratio of 5:4 and aggregation rates were again determined spectrophotometrically. Then the same experiment was performed in the presence of increasing concentrations of the Hsp16.3 binding peptides (Seq IDs 10 and 22) (Figure 2).
Aggregation assays were performed by heating 5 µM Alcohol dehydrogenase (ADH) to 50°C directly in a spectrophotometer using a thermostated cuvette holder in a total reaction volume of 500 µl. Absorbance was monitored at 360 nm (A360) for 1200 seconds and readings were taken at every 100 seconds interval. When the A360 values were plotted against time (black triangle) it was observed that absorbance increased with time reaching near saturation level at the1200 sec time point. The increase in absorbance indicates aggregation of ADH. […] However the same effect may be obtained if the peptide instead of inhibiting the activity of Hsp16.3 promotes the aggregation of ADH. To eliminate such a possibility a control experiment was done in which the peptide alone was added to ADH.
To obtain a more quantitative interpretation of the data the % residual chaperon activity of Hsp 16.3 in the presence of different concentrations of inhibitor was derived as follows, the A360 values at the saturation point (1200 secs) being taken into consideration.
The % chaperon activity was then plotted against peptide concentration (Fig. 2B). From the resulting curve it is apparent that chaperon activity decreases exponentially with increasing concentration of peptide. […]

[3] = target: T1, Hsp16.3; test: NMR (TOCSY) comparison of amide proton chemical shifts of free peptide and peptide with Hsp16.3; format: binding; settings: 0.1 mM protein, 2 mM peptide, 20 mM sodium phosphate pH 7.0, 250 mM NaCl, 4°C
Experimental: All NMR spectra were taken in a Bruker DRX-500 NMR spectrometer equipped with a Z-field gradient probe. All measurements were done in high precision 5-mm NMR tubes in 20 mM sodium phosphate buffer, pH 7.0, containing 250 mM NaCl in 90% H2O and 10% D2O. All NMR experiments were done at 4°C, unless stated otherwise. TOCSY spectra were measured using standard pulse sequences in the Bruker pulse library using WATERGATE water suppression method. Standard Bruker software (Xwin-NMR version 1.3) was used to acquire and process the NMR data. The NMR samples were adjusted to a protein concentration of 0.1 mM and a 20-fold ligand excess (2 mM) over binding sites was used throughout the studies.
The comparison of chemical shifts of amide protons of free peptide (Seq ID 10) (A) and peptide with Hsp16.3 protein (B). Resonance assignments are indicated with a one-letter amino acid code. All NMR spectra were taken in a Bruker DRX-500 spectrometer equipped with a Z-field gradient probe. All measurements were done in high precision 5-mm NMR tubes in 20 mM sodium phosphate buffer, pH 7.0, containing 250 mM NaCl in 90% H2O and 10% D2O at 4°C. TOCSY spectra were measured using standard pulse sequences in the Bruker pulse library using WATERGATE water suppression method. Standard Bruker software (Xwin-NMR version 1.3) was used to acquire and process the NMR data. […]

[4] = target: T2, human alphaB-crystallin (Homo sapiens, UniProt P02511); test: ADH aggregation assay with alphaB-crystallin instead of Hsp16.3 (specificity); format: biochemical; settings: 25, 50, 100 µM peptide; ADH:alphaB-crystallin 5:4
T2 construct: expression vector from Dr. W.C; Boelens, University of Nijmegen
T2 sequence (P02511 1-175): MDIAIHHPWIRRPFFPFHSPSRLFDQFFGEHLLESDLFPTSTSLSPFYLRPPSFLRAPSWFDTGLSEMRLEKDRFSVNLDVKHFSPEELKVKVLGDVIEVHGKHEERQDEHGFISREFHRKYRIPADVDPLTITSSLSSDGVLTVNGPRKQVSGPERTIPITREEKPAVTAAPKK

T1 sequence (P9WMK1 whole entry, looked up): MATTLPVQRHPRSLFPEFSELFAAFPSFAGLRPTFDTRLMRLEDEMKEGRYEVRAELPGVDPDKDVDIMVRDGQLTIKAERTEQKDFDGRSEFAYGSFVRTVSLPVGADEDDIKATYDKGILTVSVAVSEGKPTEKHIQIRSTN

For `CC[C@H](C)[C@H](NC(=O)[C@@H]1CCCN1C(=O)[C@@H](NC(=O)[C@H](Cc1c[nH]cn1)NC(=O)[C@H](CCCNC(=N)N)NC(=O)[C@H](Cc1c[nH]cn1)NC(=O)[C@H](CCCCN)NC(=O)[C@H](Cc1ccccc1)NC(=O)[C@H](Cc1c[nH]cn1)NC(=O)[C@H](Cc1c[nH]cn1)NC(=O)[C@@H]1CCCN1C(=O)[C@@H](N)Cc1ccc(O)cc1)[C@@H](C)CC)C(=O)NCC(=O)NCC(=O)NCC(=O)N[C@@H](CO)C(N)=O` [Seq ID 22, Tyr-Pro-His-His-Phe-Lys-His-Arg-His-Ile-Pro-Ile-Gly-Gly-Gly-Ser] (H-YPHHFKHRHIPIGGGS-NH2), which Kd [1] is on record?
Its Kd is ~40 µM and 40 µM.

And the IC50 [2]?
Its IC50 is 57 µM and 52 µM.

For `CSCC[C@H](NC(=O)[C@@H](N)CCCCN)C(=O)N[C@@H](Cc1c[nH]cn1)C(=O)N[C@@H](C)C(=O)N[C@H](C(=O)N[C@@H](CC(N)=O)C(=O)N[C@@H](Cc1c[nH]cn1)C(=O)NCC(=O)NCC(=O)NCC(=O)N[C@@H](CO)C(N)=O)[C@@H](C)O` [Seq ID 10, Lys-Met-His-Ala-Thr-Asn-His-Gly-Gly-Gly-Ser] (H-KMHATNHGGGS-NH2), which “chemical shift of amide protons on addition of Hsp16.3” value [3] is on record?
The value was “significant chemical shift occured in both histidines”.

What about the Kd [1] of the same compound?
The Kd was ~50 µM and 50 µM.

What about the “inhibition of chaperon activity of alphaB-crystallin” value [4] of the same compound?
Its value is “no inhibition”.

What about the aggregation restored ([2]; 100 µM peptide, A360 at saturation point, ADH:Hsp16.3 5:4) of the same compound?
The aggregation restored was roughly 70%.

What about the “inhibition of chaperon activity of Hsp16.3” value ([2]; 25, 50 and 100 µM peptide) of the same compound?
The value was “dose dependent inhibition”.

And the “influence of peptide alone on aggregation of ADH (only peptide control)” value ([2]; ADH + 100 µM peptide, no Hsp16.3)?
The value was “does not influence the aggregation of ADH”.

What about the IC50 [2] of the same compound?
Its IC50 is 47 µM and ~47 µM.

From patent EP1758924B1, “PEPTIDES ANTAGONISTS FOR […] SHOCK PROTEIN (HSP 16.3) OF MYCOBACTERIUM TUBERCULOSIS” (priority 2004, dated 2005)
